Patent US10556905B2, “Processes for preparing a diazabicyclooctane compound” (priority 2012, dated 2020)
Like-named read-outs stand apart in the source and are kept apart here.

Assays:
AmpC = biological target: T1, AmpC (Pseudomonas aeruginosa, UniProt P24735); experiment: biochemical
T1 construct: AmpC, TEM-1, KPC-2 or OXA-2 domain excluding signal peptide was amplified with PCR; made in house; host or cells: Escherichia coli BL21 (DE3), pET-28b(+)

TEM-1 = biological target: T2, TEM-1 (Escherichia coli, UniProt P62593); experiment: β-Lactamase inhibitory activity (nitrocefin hydrolysis), TEM-1; assay type: biochemical; conditions: TEM-1 0.1 nM, 100 μM nitrocefin, pre-incubation 30° C. 10 minutes
T2 construct: AmpC, TEM-1, KPC-2 or OXA-2 domain excluding signal peptide was amplified with PCR; made in house; host or cells: Escherichia coli BL21 (DE3), pET-28b(+)
Protocol: Using Pseudomonas aeruginosa ATCCBAA-47 genome, plasmid pBR322, Klebsiella pneumoniae ATCCBAA-1705, and P. aeruginosa MSC17696 as a template, each DNA for encoding β-lactamase, AmpC, TEM-1, KPC-2 or OXA-2 domain excluding signal peptide was amplified with PCR. Each of the PCR product was incorporated into pET-28b(+)vector (Merck), introduced into Escherichia coli BL21 (DE3) (Merck), and, under induction of 1 mM isopropyl-β-D-(−)-thiogalactopyranoside (Nacalai Tesque), cultured overnight at 20° C. to express AmpC, TEM-1, KPC-2, and OXA-2. After the bacterial cell was collected, AmpC was purified from the cell extract obtained by ultrasonic treatment, using CM Sepharose Fast Flow (GE Healthcare) and HiTrap Heparin HP (GE Healthcare) at 4° C. TEM-1 was purified with HiTrap SPHP (GE Healthcare), HiTrap Q (GE Healthcare) and Mono Q (GE Healthcare), and KPC-2 was purified with HiTrap SPHP. OXA-2 was purified with HiTrap SPHP and HiTrap Heparin HP.
For the measurement of β-lactamase inhibitory activity, 100 μM (final concentration) nitrocefin (Oxoid) was used as a substrate, and 2.5% DMSO, 10 μg/mL bovine serum derived albumin (Sigma-Aldrich) and 50 mM phosphate buffer at pH 7.0 were used as a reaction solution. […] Nitrocefin was added to each well to be mixed therein, followed by incubation at 30° C. for 20 minutes, and Multiscan Ascent (Thermo Fisher Scientific) was used to measure 492 nm wavelength, thereby measuring nitrocefin hydrolytic activity of β-Lactamase, to determine enzyme inhibitory activity. […] As the inhibitory activity strength, less than 0.1 μM, less than 1 μM, less than 3 μM, less than 10 μM, and 10 μM or more were shown with A, B, C, D, and E respectively.

KPC-2 = biological target: T3, KPC-2 (Klebsiella pneumoniae, UniProt Q9F663); experiment: β-Lactamase inhibitory activity (nitrocefin hydrolysis), KPC-2; assay type: biochemical; conditions: KPC-2 0.5 nM, 100 μM nitrocefin, pre-incubation 30° C. 10 minutes
T3 construct: AmpC, TEM-1, KPC-2 or OXA-2 domain excluding signal peptide was amplified with PCR; made in house; host or cells: Escherichia coli BL21 (DE3), pET-28b(+)

OXA-2 = biological target: T4, OXA-2 (Escherichia coli, UniProt P0A1V9); experiment: biochemical; set-up: species or system P. aeruginosa
T4 construct: AmpC, TEM-1, KPC-2 or OXA-2 domain excluding signal peptide was amplified with PCR; made in house; host or cells: Escherichia coli BL21 (DE3), pET-28b(+)

[1] = OXA-2 2 nM, 100 μM nitrocefin, pre-incubation 30° C. 10 minutes, read-out: β-Lactamase inhibitory activity OXA-2 (IC50)

T4 sequence (P0A1V9 22-275): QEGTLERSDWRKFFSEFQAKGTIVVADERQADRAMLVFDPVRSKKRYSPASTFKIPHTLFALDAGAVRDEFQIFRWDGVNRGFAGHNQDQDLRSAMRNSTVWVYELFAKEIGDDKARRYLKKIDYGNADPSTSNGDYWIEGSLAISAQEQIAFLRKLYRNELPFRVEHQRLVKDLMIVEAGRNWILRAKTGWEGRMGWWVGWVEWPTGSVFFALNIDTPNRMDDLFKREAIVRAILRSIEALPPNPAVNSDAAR
T2 sequence (P62593 24-286 limits assumed): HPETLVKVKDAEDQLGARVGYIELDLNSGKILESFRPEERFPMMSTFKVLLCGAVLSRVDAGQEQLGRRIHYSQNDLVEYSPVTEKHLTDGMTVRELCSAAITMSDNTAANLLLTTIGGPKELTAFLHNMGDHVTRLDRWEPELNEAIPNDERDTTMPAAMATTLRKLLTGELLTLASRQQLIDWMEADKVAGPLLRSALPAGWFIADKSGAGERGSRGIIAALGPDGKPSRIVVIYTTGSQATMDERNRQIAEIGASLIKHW
T3 sequence (Q9F663 25-293, looked up): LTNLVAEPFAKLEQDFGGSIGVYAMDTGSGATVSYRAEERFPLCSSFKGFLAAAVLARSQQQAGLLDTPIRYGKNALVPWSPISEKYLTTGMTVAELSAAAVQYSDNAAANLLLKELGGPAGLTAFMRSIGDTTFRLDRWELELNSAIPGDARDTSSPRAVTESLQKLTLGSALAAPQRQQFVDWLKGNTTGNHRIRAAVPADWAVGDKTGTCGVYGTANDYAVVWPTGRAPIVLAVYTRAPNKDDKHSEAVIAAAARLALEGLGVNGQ
T1 sequence (P24735 27-397): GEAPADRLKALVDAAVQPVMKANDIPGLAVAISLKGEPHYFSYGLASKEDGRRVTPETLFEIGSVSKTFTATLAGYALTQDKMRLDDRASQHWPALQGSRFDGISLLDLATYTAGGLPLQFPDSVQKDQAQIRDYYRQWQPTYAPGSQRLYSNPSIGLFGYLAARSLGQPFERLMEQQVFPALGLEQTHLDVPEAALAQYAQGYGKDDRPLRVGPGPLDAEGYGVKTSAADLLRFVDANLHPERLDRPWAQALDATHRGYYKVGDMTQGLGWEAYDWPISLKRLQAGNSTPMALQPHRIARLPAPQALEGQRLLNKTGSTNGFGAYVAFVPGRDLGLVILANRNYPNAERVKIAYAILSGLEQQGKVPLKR

In the case of `O=C(NOC[C@@H]1CCN1)[C@@H]1CC[C@@H]2CN1C(=O)N2OS(=O)(=O)O` [Example 75, (2S,5R)—N-[(2S)-Azetidin-2-ylmethoxy]-7-oxo-6-(sulfooxy)-1,6-diazabicyclo[3.2.1]octane-2-carboxamide], the IC50 (AmpC) is reported as 0.1 to 1 µM, the IC50 (TEM-1) is reported as < 0.1 µM and the IC50 (KPC-2) is reported as 0.1 to 1 µM. It also gave an IC50 (OXA-2; [1]) of 1 to 3 µM.
In the case of `O=C(NOC[C@H]1CCCN1)[C@@H]1CC[C@@H]2CN1C(=O)N2OS(=O)(=O)O` [Example 77, (2S,5R)-7-Oxo-N-[(2R)-pyrrolidin-2-ylmethoxy]-6-(sulfooxy)-1,6-diazabicyclo[3.2.1]octane-2-carboxamide], the IC50 (AmpC) is reported as 0.1 to 1 µM, the IC50 (TEM-1) is reported as < 0.1 µM and the IC50 (KPC-2) is reported as 0.1 to 1 µM. It also gave an IC50 (OXA-2; [1]) of 0.1 to 1 µM.
With `O=C(NOCC1CCNCC1)[C@@H]1CC[C@@H]2CN1C(=O)N2OS(=O)(=O)O` [Example 85, (2S,5R)-7-Oxo-N-(piperidine-4-ylmethoxy)-6-(sulfooxy)-1,6-diazabicyclo[3.2.1]octane-2-carboxamide] the IC50 (AmpC) was < 0.1 µM, the IC50 (TEM-1) was < 0.1 µM and the IC50 (KPC-2) was 0.1 to 1 µM. The IC50 (OXA-2; [1]) was 0.1 to 1 µM.
`O=C(NOCCn1ccnc1)[C@@H]1CC[C@@H]2CN1C(=O)N2OS(=O)(=O)O` [Example 86, Sodium (2S,5R)—N-[2-(1H-Imidazol-1-yl)ethoxy]-7-oxo-6-(sulfooxy)-1,6-diazabicyclo[3.2.1]octane-2-carboxamide] was tested, and the IC50 (AmpC) was < 0.1 µM, the IC50 (TEM-1) was < 0.1 µM and the IC50 (KPC-2) was 0.1 to 1 µM.
Molecule `CN(C)CCONC(=O)[C@@H]1CC[C@@H]2CN1C(=O)N2OS(=O)(=O)O` [Example 65, (2S,5R)—N-[2-(Dimethylamino)ethoxy]-7-oxo-6-(sulfooxy)-1,6-diazabicyclo[3.2.1]octane-2-carboxamide] has an IC50 (AmpC) of 0.1 to 1 µM, an IC50 (TEM-1) of 0.1 to 1 µM and an IC50 (KPC-2) of 1 to 3 µM. The IC50 (OXA-2; [1]) was 1 to 3 µM.
For `COCC(=O)NNC(=O)[C@@H]1CC[C@@H]2CN1C(=O)N2OS(=O)(=O)O` [Example 29, Sodium (2S,5R)—N′-(methoxyacetyl)-7-oxo-6-(sulfooxy)-1,6-diazabicyclo[3.2.1]octane-2-carbohydrazide], the IC50 (AmpC) was 0.1 to 1 µM, the IC50 (TEM-1) was < 0.1 µM and the IC50 (KPC-2) was 0.1 to 1 µM. The IC50 (OXA-2) was 3 to 10 µM.
With `CCOC(=O)NNC(=O)[C@@H]1CC[C@@H]2CN1C(=O)N2OS(=O)(=O)O` [Example 52, Sodium ethyl 2-{[(2S,5R)-7-oxo-6-(sulfooxy)-1,6-diazabicyclo[3.2.1]oct-2-yl]carbonyl}hydrazinecarboxylate] the IC50 (AmpC) was 0.1 to 1 µM, the IC50 (TEM-1) was < 0.1 µM and the IC50 (KPC-2) was 0.1 to 1 µM. For the same molecule, the IC50 (OXA-2) was 1 to 3 µM.
`O=C(NNC(=O)[C@@H]1CC[C@@H]2CN1C(=O)N2OS(=O)(=O)O)c1ccco1` [Example 43, Sodium (2S,5R)—N′-(furan-2-ylcarbonyl)-7-oxo-6-(sulfooxy)-1,6-diazabicyclo[3.2.1]octane-2-carbohydrazide] was tested, and the IC50 (AmpC) was 0.1 to 1 µM, the IC50 (TEM-1) was < 0.1 µM and the IC50 (KPC-2) was 0.1 to 1 µM. The IC50 (OXA-2) was 1 to 3 µM.
With `NNC(=O)[C@@H]1CC[C@@H]2CN1C(=O)N2OS(=O)(=O)O` [Example 17, (2S,5R)-7-Oxo-6-(sulfooxy)-1,6-diazabicyclo[3.2.1]octane-2-carbohydrazide] the IC50 (AmpC) was 0.1 to 1 µM, the IC50 (TEM-1) was < 0.1 µM and the IC50 (KPC-2) was 0.1 to 1 µM. For the same molecule, the IC50 (OXA-2; [1]) was 3 to 10 µM.
`CC(C)C(=O)NNC(=O)[C@@H]1CC[C@@H]2CN1C(=O)N2OS(=O)(=O)O` [Example 23, Sodium (2S,5R)—N′-(2-methylpropanoyl)-7-oxo-6-(sulfooxy)-1,6-diazabicyclo[3.2.1]octane-2-carbohydrazide] was tested, and the IC50 (AmpC) was 0.1 to 1 µM, the IC50 (TEM-1) was < 0.1 µM and the IC50 (KPC-2) was 0.1 to 1 µM. It also gave an IC50 (OXA-2) of 3 to 10 µM.
For `CC(C)(C)OC(=O)NCCONC(=O)[C@@H]1CC[C@@H]2CN1C(=O)N2OS(=O)(=O)O` [Example 60, Sodium tert-butyl {2-[({[(2S,5R)-7-oxo-6-(sulfooxy)-1,6-diazabicyclo[3.2.1]oct-2-yl]carbonyl}amino)oxy]ethyl}carbamate], the IC50 (AmpC) was 0.1 to 1 µM, the IC50 (TEM-1) was < 0.1 µM and the IC50 (KPC-2) was 0.1 to 1 µM. It also gave an IC50 (OXA-2) of 0.1 to 1 µM.
`O=C(NNC(=O)[C@@H]1CC[C@@H]2CN1C(=O)N2OS(=O)(=O)O)c1cccnc1` [Example 45, Sodium (2S,5R)-7-oxo-N′-(pyridine-3-ylcarbonyl)-6-(sulfooxy)-1,6-diazabicyclo[3.2.1]octane-2-carbohydrazide] was tested, and the IC50 (AmpC) was < 0.1 µM, the IC50 (TEM-1) was < 0.1 µM and the IC50 (KPC-2) was 0.1 to 1 µM. The IC50 (OXA-2) was 1 to 3 µM.
For `O=C(NOCC1CCC1)[C@@H]1CC[C@@H]2CN1C(=O)N2OS(=O)(=O)O` [Example 58, Sodium (2S,5R)—N-(cyclobutylmethoxy)-7-oxo-6-(sulfooxy)-1,6-diazabicyclo[3.2.1]octane-2-carboxamide], the IC50 (AmpC) was < 0.1 µM, the IC50 (TEM-1) was < 0.1 µM and the IC50 (KPC-2) was < 0.1 µM. The IC50 (OXA-2) was 0.1 to 1 µM.
For `O=C([C@@H]1CC[C@@H]2CN1C(=O)N2OS(=O)(=O)O)N1CCCCO1` [Example 71, Sodium (2S,5R)-2-(1,2-oxazinan-2-ylcarbonyl)-6-(sulfooxy)-1,6-diazabicyclo[3.2.1]octane-7-one], the IC50 (AmpC) was 0.1 to 1 µM, the IC50 (TEM-1) was < 0.1 µM and the IC50 (KPC-2) was 0.1 to 1 µM.
With `CN(C)C(=O)CONC(=O)[C@@H]1CC[C@@H]2CN1C(=O)N2OS(=O)(=O)O` [Example 89, Sodium (2S,5R)—N-[2-(dimethylamino)-2-oxoethoxy]-7-oxo-6-(sulfooxy)-1,6-diazabicyclo[3.2.1]octane-2-carboxamide] the IC50 (AmpC) was < 0.1 µM, the IC50 (TEM-1) was < 0.1 µM and the IC50 (KPC-2) was < 0.1 µM. The IC50 (OXA-2) was 0.1 to 1 µM.
For `CCONC(=O)[C@@H]1CC[C@@H]2CN1C(=O)N2OS(=O)(=O)O` (racemic) [Example 57, Sodium (2SR,5RS)—N-ethoxy-7-oxo-6-(sulfooxy)-1,6-diazabicyclo[3.2.1]octane-2-carboxamide], the IC50 (AmpC) was 0.1 to 1 µM, the IC50 (TEM-1) was < 0.1 µM and the IC50 (KPC-2) was 1 to 3 µM.
`O=C(NOCCO)[C@@H]1CC[C@@H]2CN1C(=O)N2OS(=O)(=O)O` [Example 95, Sodium (2S,5R)—N-(2-hydroxyethoxy)-7-oxo-6-(sulfooxy)-1,6-diazabicyclo[3.2.1]octane-2-carboxamide] was tested, and the IC50 (AmpC) was < 0.1 µM, the IC50 (TEM-1) was < 0.1 µM and the IC50 (KPC-2) was < 0.1 µM. It also gave an IC50 (OXA-2) of 1 to 3 µM.
`CNNC(=O)[C@@H]1CC[C@@H]2CN1C(=O)N2OS(=O)(=O)O` (racemic) [Example 19, (2SR,5RS)—N′-Methyl-7-oxo-6-(sulfooxy)-1,6-diazabicyclo[3.2.1]octane-2-carbohydrazide] was tested, and the IC50 (AmpC) was 0.1 to 1 µM, the IC50 (TEM-1) was < 0.1 µM and the IC50 (KPC-2) was 0.1 to 1 µM.
With `C[C@]1(Cn2ccnn2)[C@H](C(=O)O)N2C(=O)C[C@H]2S1(=O)=O` [TAZ, tazobactam, reference compound] the IC50 (KPC-2) was 0.1 to 1 µM and the IC50 (OXA-2; [1]) was < 0.1 µM.
For `O=C(NNC(=O)[C@@H]1CC[C@@H]2CN1C(=O)N2OS(=O)(=O)O)c1ccccc1` (racemic) [Example 30, Sodium (2SR,5RS)—N′-benzoyl-7-oxo-6-(sulfooxy)-1,6-diazabicyclo[3.2.1]octane-2-carbohydrazide], the IC50 (AmpC) was 0.1 to 1 µM, the IC50 (TEM-1) was < 0.1 µM and the IC50 (KPC-2) was 0.1 to 1 µM.
For `O=C(NC1CCNCC1)[C@@H]1CC[C@@H]2CN1C(=O)N2OS(=O)(=O)O` [MK-7655, reference compound], the IC50 (OXA-2; [1]) was 0.1 to 1 µM.
Work on `NCC(=O)NNC(=O)[C@@H]1CC[C@@H]2CN1C(=O)N2OS(=O)(=O)O` (racemic) [Example 26, (2SR,5RS)—N′-(Aminoacetyl)-7-oxo-6-(sulfooxy)-1,6-diazabicyclo[3.2.1]octane-2-carbohydrazide] yielded an IC50 (AmpC) of 1 to 3 µM, an IC50 (TEM-1) of 0.1 to 1 µM and an IC50 (KPC-2) of 1 to 3 µM.
In the case of `O=C(NOCCN1CCNCC1)[C@@H]1CC[C@@H]2CN1C(=O)N2OS(=O)(=O)O` [Example 73, (2S,5R)-7-Oxo-N-[2-(piperazin-1-yl)ethoxy]-6-(sulfooxy)-1,6-diazabicyclo[3.2.1]octane-2-carboxamide], the IC50 (AmpC) is reported as < 0.1 µM, the IC50 (TEM-1) is reported as < 0.1 µM and the IC50 (KPC-2) is reported as 0.1 to 1 µM.
In the case of `CC(C)(C)OC(=O)NNC(=O)[C@@H]1CC[C@@H]2CN1C(=O)N2OS(=O)(=O)O` (racemic) [Example 53, Sodium tert-butyl 2-{[(2SR,5RS)-7-oxo-6-(sulfooxy)-1,6-diazabicyclo[3.2.1]oct-2-yl]carbonyl}hydrazinecarboxylate], the IC50 (AmpC) is reported as 0.1 to 1 µM, the IC50 (TEM-1) is reported as < 0.1 µM and the IC50 (KPC-2) is reported as 0.1 to 1 µM.
In the case of `CC(C)(C)C(=O)NNC(=O)[C@@H]1CC[C@@H]2CN1C(=O)N2OS(=O)(=O)O` [Example 24, Sodium (2S,5R)—N′-(2,2-dimethylpropanoyl)-7-oxo-6-(sulfooxy)-1,6-diazabicyclo[3.2.1]octane-2-carbohydrazide], the IC50 (AmpC) is reported as 0.1 to 1 µM, the IC50 (TEM-1) is reported as 0.1 to 1 µM and the IC50 (KPC-2) is reported as 0.1 to 1 µM.
For `NC(=O)[C@@H]1CC[C@@H]2CN1C(=O)N2OS(=O)(=O)O` [NXL104, reference compound], the IC50 (OXA-2; [1]) was 0.1 to 1 µM.
